In ChEMBL document CHEMBL5518165, “M335, a novel small-molecule STING agonist activates the immune response and exerts antitumor effects” (Eur J Med Chem, 2024):
Active and inactive are the calls of the source. The calls are words filed in the database; no cut-off is given here.

Key:
CT26 [1] = test: Antitumor activity against mouse CT26 cells allografted in […] mouse assessed as augmentation of CD45+ cells in spleen at 5 mg/kg, ip administered every 2 days (reference value: 35.1%); format: functional
THP-1 [2] = test: Upregulation of IFNB mRNA level in STING-knockout human THP-1 cells at 20 uM measured for 4 hrs by qPCR analysis; format: functional, cell-based
[3] = target: Stimulator of interferon genes protein (Homo sapiens) (UniProt Q86WV6); test: Agonist activity at STING in human THP-1 cells assessed as increase in IL6 mRNA level at 20 uM measured for 4 hrs by qPCR analysis; format: cell-based; conditions: filed as agonist
Sequence of Stimulator of interferon genes protein (Homo sapiens) (Q86WV6 whole entry): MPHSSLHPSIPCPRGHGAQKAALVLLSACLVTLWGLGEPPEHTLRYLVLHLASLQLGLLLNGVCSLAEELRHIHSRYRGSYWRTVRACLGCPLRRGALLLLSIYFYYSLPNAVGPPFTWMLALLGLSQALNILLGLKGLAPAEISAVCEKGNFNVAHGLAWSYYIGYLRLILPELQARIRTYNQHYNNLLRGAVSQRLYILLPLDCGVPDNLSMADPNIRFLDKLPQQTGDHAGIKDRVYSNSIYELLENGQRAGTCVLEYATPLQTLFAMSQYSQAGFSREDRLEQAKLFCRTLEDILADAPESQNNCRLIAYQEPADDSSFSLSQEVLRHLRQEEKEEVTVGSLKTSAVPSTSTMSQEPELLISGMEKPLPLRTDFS

[4] = target: Stimulator of interferon genes protein (Homo sapiens) (UniProt Q86WV6); test: Agonist activity at STING in human THP-1 cells assessed as TBK1 phosphorylation at 20 uM measured for 4 hrs in presence of H-151 by Western blotting analysis; format: cell-based
[5] = target: T1, Stimulator of interferon genes protein (Mus musculus) (UniProt Q3TBT3); test: Agonist activity at STING in MEF cells assessed as increase in STING oligomerization by Western blotting analysis; format: cell-based; conditions: filed as agonist
T1 sequence (whole entry): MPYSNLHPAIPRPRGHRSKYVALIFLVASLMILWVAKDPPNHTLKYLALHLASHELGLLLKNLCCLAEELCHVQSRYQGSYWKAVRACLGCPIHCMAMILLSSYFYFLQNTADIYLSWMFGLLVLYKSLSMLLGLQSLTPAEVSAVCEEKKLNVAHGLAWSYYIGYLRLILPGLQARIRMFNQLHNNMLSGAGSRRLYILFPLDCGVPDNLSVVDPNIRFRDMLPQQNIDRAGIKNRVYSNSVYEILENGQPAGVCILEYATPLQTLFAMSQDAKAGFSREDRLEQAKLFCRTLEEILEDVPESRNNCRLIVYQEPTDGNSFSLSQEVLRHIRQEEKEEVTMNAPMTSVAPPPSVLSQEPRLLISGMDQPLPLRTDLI

[6] = target: Stimulator of interferon genes protein (Homo sapiens) (UniProt Q86WV6); test: Agonist activity at STING in human THP-1 cells assessed as increase in ISG15 mRNA level at 20 uM measured for 4 hrs by qPCR analysis; format: cell-based; conditions: filed as agonist
[7] = target: Stimulator of interferon genes protein (Homo sapiens) (UniProt Q86WV6); test: Binding affinity to human STING CTD assessed as decrease in protein stability by Western blotting analysis; conditions: filed as agonist
[8] = target: Stimulator of interferon genes protein (Homo sapiens) (UniProt Q86WV6); test: Agonist activity at STING in human THP-1 cells assessed as increase in TBK1 phosphorylation at 20 uM measured for 4 hrs by Western blotting analysis; format: cell-based; conditions: filed as agonist
[9] = target: Stimulator of interferon genes protein (Homo sapiens) (UniProt Q86WV6); test: Agonist activity at STING in human THP-1 cells assessed as increase in IFNB mRNA level at 20 uM measured for 4 hrs by qPCR analysis; format: cell-based; conditions: filed as agonist
[10] = target: Stimulator of interferon genes protein (Homo sapiens) (UniProt Q86WV6); test: Agonist activity at STING in human THP-1 cells assessed as upregulation of IFNgamma related genes by GSEA; format: cell-based; conditions: filed as agonist
CT26 [11] = test: Antitumor activity against mouse CT26 cells allografted in […] mouse assessed as reduction in tumor development at 300 ug, IT administered every 2 days; format: functional, cell-based; conditions: dose 300.0 µg
[12] = target: Stimulator of interferon genes protein (Homo sapiens) (UniProt Q86WV6); test: Agonist activity at STING in human THP-1 cells assessed as increase in IRF3 phosphorylation at 20 uM measured for 4 hrs by Western blotting analysis; format: cell-based; conditions: filed as agonist
MC-38 [13] = test: Antitumor activity against mouse MC38 cells allografted in C57/BL6 mouse assessed as increase in CD45+ T cells in tumor tissue at 300 ug, IT administered every 2 days by flow cytometry analysis; format: functional, cell-based; conditions: dose 300.0 µg
MC-38 [14] = test: Antitumor activity against mouse MC38 cells allografted in C57/BL6 mouse assessed as increase in CD8+ T cells in spleen at 300 ug, IT administered every 2 days by flow cytometry analysis (reference value: 8.80%); format: functional; conditions: dose 300 µg
Human alphaherpesvirus 1 [15] = test: Antiviral activity against HSV-1-GFP infected in human THP-1 cells assessed as reduction in viral infection at 10 to 30 uM pre-infected with virus for 48 hrs followed by compound addition and measured after 6 hrs by flow cytometry analysis; format: functional, organism-based; conditions: dose 10-30 µM
CT26 [16] = test: Antitumor activity against mouse CT26 cells […] mouse assessed as augmentation of CD3+ T cells in spleen at 10 mg/kg, ip administered every 2 days (reference value: 13.9%); format: functional
[17] = target: Stimulator of interferon genes protein (Homo sapiens) (UniProt Q86WV6); test: Agonist activity at STING in human THP-1 cells assessed as increase in CXCL10 mRNA level at 20 uM measured for 4 hrs by qPCR analysis; format: cell-based; conditions: filed as agonist
Human alphaherpesvirus 1 [18] = test: Antiviral activity against HSV-1-GFP infected in human THP-1 cells assessed as reduction in proportion of infected cells pre-infected […] for 24 hrs followed by compound addition and measured after 6 hrs by flow cytometry analysis; format: functional, organism-based; conditions: dose 10-30 µM
Human alphaherpesvirus 1 [19] = test: Antiviral activity against HSV-1-GFP infected in human THP-1 cells assessed as reduction in viral infection pre-infected with virus for 24 hrs followed by compound addition and measured after 6 hrs by flow cytometry analysis; format: functional, organism-based; conditions: dose 10-30 µM
Human alphaherpesvirus 1 [20] = test: Antiviral activity against HSV-1-GFP infected in human STING overexpressing HeLa cells assessed as reduction in viral infection by fluorescent microscopy analysis; format: functional, organism-based
MC-38 [21] = test: Antitumor activity against mouse MC38 cells allografted in C57/BL6 mouse assessed as increase in CD3+ T cells in spleen at 300 ug, IT administered every 2 days by flow cytometry analysis; format: functional, cell-based; conditions: dose 300.0 µg
CT26 [22] = test: Antitumor activity against mouse CT26 cells […] mouse assessed as augmentation of CD3+ T cells in spleen at 5 mg/kg, ip administered every 2 days (reference value: 13.9%); format: functional
CT26 [23] = test: Antitumor activity against mouse CT26 cells allografted in ip dosed […] mouse assessed as reduction in tumor growth administered every 2 days; format: functional, organism-based; conditions: dose 5-20 mg/kg
[24] = Toxicity in C57/BL6 mouse allografted with mouse B16-F10 cells assessed as change in body weight at 300 ug, IT administered every 2 days; format: cell-based; conditions: in vivo, other, 48 h, dose 300 µg
[25] = target: Stimulator of interferon genes protein (Homo sapiens) (UniProt Q86WV6); test: Agonist activity at STING in human THP-1 cells assessed as increase in IRF3 phosphorylation incubated for 4 hrs by Western blotting analysis; format: cell-based; conditions: filed as agonist, dose 5-40 µM
CT26 [26] = test: Antitumor activity against mouse CT26 cells […] mouse assessed as augmentation of CD8+ T cells in spleen at 5 mg/kg, ip administered every 2 days (reference value: 6.99%); format: functional
THP-1 [27] = test: Upregulation of ISG15 mRNA level in STING-knockout human THP-1 cells at 20 uM measured for 4 hrs by qPCR analysis; format: functional, cell-based
[28] = target: Stimulator of interferon genes protein (Homo sapiens) (UniProt Q86WV6); test: Agonist activity at STING in human THP-1 cells assessed as increase in STING oligomerization by Western blotting analysis; format: cell-based; conditions: filed as agonist, dose 5-40 µM
B16-F10 = test: Antitumor activity against mouse B16-F10 cells allografted in C57/BL6 mouse assessed as reduction in tumor growth at 300 ug, IT administered every 2 days; format: functional, cell-based; conditions: dose 300.0 µg
[29] = target: Stimulator of interferon genes protein (Homo sapiens) (UniProt Q86WV6); test: Agonist activity at STING in human THP-1 cells assessed as upregulation of interferon stimulated genes at 20 uM by RNA sequencing analysis; format: cell-based; conditions: filed as agonist
[30] = Toxicity in […] mouse allografted with mouse CT26 cells assessed as change in body weight at 300 ug, IT administered every 2 days; format: cell-based; conditions: in vivo, other, 48 h, dose 300 µg

Q: Which Activity (CT26 [1]) does the source give for `CC(NCCC(c1ccccc1)c1ccccc1)c1ccccc1` (stereo unspecified) [FENDILINE] here?
A: The Activity was 42.5%.

Q: What about the Activity (THP-1 [2]) of the same compound?
A: Its Activity is “inactive”.

Q: What about the Activity [3] of the same compound?
A: The Activity was “Active”.

Q: What about the Activity [4] of the same compound?
A: Its Activity is “inactive”.

Q: And the Activity [5]?
A: Its Activity is “Active”.

Q: What about the Activity [6] of the same compound?
A: The Activity was “Active”.

Q: What about the Activity [7] of the same compound?
A: Its Activity is “Active”.

Q: And the Activity [8]?
A: Its Activity is “Active”.

Q: And the Activity [9]?
A: Its Activity is “Active”.

Q: And the Activity [10]?
A: Its Activity is “Active”.

Q: What about the Activity (CT26 [11]) of the same compound?
A: The Activity was “Active”.

Q: What about the Activity [12] of the same compound?
A: Its Activity is “Active”.

Q: What about the Activity (MC-38 [13]) of the same compound?
A: Its Activity is “Active”.

Q: What about the Activity (MC-38 [14]) of the same compound?
A: The Activity was 14.3%.

Q: What about the Activity (Human alphaherpesvirus 1 [15]) of the same compound?
A: The Activity was “Active”.

Q: And the Activity (CT26 [16])?
A: Its Activity is 28.6%.

Q: And the Activity [17]?
A: The Activity was “Active”.

Q: What about the Activity (Human alphaherpesvirus 1 [18]) of the same compound?
A: Its Activity is “Dose-Dependent Effect”.

Q: And the Activity (Human alphaherpesvirus 1 [19])?
A: Its Activity is “Dose-Dependent Effect”.

Q: What about the Activity (Human alphaherpesvirus 1 [20]) of the same compound?
A: The Activity was “Active”.

Q: And the Activity (MC-38 [21])?
A: The Activity was “Active”.

Q: What about the Activity (CT26 [22]) of the same compound?
A: Its Activity is 20.3%.

Q: What about the Activity (CT26 [23]) of the same compound?
A: The Activity was “Dose-Dependent Effect”.

Q: And the Activity [24]?
A: The Activity was “Non-Toxic”.

Q: What about the Activity [25] of the same compound?
A: Its Activity is “Dose-Dependent Effect”.

Q: What about the Activity (CT26 [26]) of the same compound?
A: Its Activity is 12.7%.

Q: And the Activity (THP-1 [27])?
A: Its Activity is “inactive”.

Q: What about the Activity [28] of the same compound?
A: The Activity was “Dose-Dependent Effect”.

Q: And the Activity (B16-F10)?
A: The Activity was “Active”.

Q: And the Activity [29]?
A: The Activity was “Active”.

Q: What about the Activity [30] of the same compound?
A: The Activity was “Non-Toxic”.
